{"source": "patent US12029803B2", "about": "“Personal cleansing compositions, methods and uses” (The Procter & Gamble Company, priority 2021, dated 2024)", "assay": "Observations of appearance, structure and phase separation (Centrifuge Test)", "assay_type": "physicochemical", "settings": "sulfate", "note": "Entries after “also recorded” stand apart in the source; their conditions may differ.", "data": [{"smiles": "CCCCCCCCCCCCCOS(=O)(=O)[O-].[Na+]", "note": "[non-ethoxylated sodium tridecyl sulfate, sodium tridecyl sulfate]", "values": [{"measurement": "lamellar phase formation of personal cleansing compositions comprising the surfactant", "value": "did not form lamellar phase; also recorded: unable to produce a stable lamellar phase"}]}]}
